{"source": "patent US20010056068A1", "about": "“METHOD OF TREATMENT AND PREVENTION OF NITRIC OXIDE DEFICIENCY-RELATED DISORDERS WITH CITRULLINE AND CITRULLINE DERIVATIVES” (priority 1998, published 2001)", "key": {"[1]": {"system": "normal and L-NAME-treated female rats", "experiment": "Systolic blood pressure by telemetry after oral citrulline in normal and L-NAME-treated female rats", "type": "in vivo, rat", "conditions": "for decrease in blood pressure: 70 mg/rat at 24 h and 140 mg/rat at 48 h after pump insertion", "procedure": "(§1) FIG. 1: The effect of a single administration of citrulline on the systolic blood pressure in normal and L-NAME-treated female rats. Intact female rats chronically instrumented with telemetric transducers allowing continuous monitoring of blood pressure were subcutaneusly implanted with osmotic mini-pumps releasing 50 mg/day L-NAME or 0.9% saline (controls). 24 hours after the pump insertion, the animals received 70 mg/rat citrulline orally per gavage. The systolic blood pressure was monitored for an additional 24 hours following citrulline treatment. N=5/group.\n(§2) FIG. 2: The effect of multiple administration of citrulline on the systolic blood pressure in normal and L-NAME-treated female rats. Intact female rats chronically instrumented with telemetric transducers allowing continuous monitoring of blood pressure were subcutaneously implanted with osmotic mini-pumps releasing 50 mg/day L-NAME or vehicle (controls). 24 and 48 hours after the pump insertion, the animals received 70 and 140 mg/rat citrulline orally per gavage. The systolic blood pressure was monitored for an additional 24 hours following the second citrulline treatment. N=5/group\nHowever, the systolic BP started to raise 4 hours after citrulline treatment.\nIn the experiment which results are presented in FIG. 2, the animals were treated twice with citrulline, i.e. 24 hours (70 mg/rat) and 48 after the start of L-NAME infusion. Similarly to FIG. 1, the first administration of citrulline was performed when the animals became hypertensive following L-NAME infusion."}, "[2]": {"system": "normal and L-NAME-treated female rats", "experiment": "Heart rate by telemetry after oral citrulline in normal and L-NAME-treated female rats", "type": "in vivo, rat", "procedure": "as §1, with “3:” for “1:”, “heart rate” for “systolic blood pressure”, “heart rate” for “blood pressure”, “subcutaneously” for “subcutaneusly”, “N=5/group” for “N=5/group.”\nAt this time there was also a pronounced increase in heart rate in the L-NAME-treated rats (to 400-450 times/minute). Following a single oral citrulline (70 mg) administration, there was a rapid and very pronounced (p<0.05) decrease in heart rate to approximately 100 times/minute reaching a plateau already 1 hour after treatment. […] The effects of citrulline sustained for 24 hours in both treatment and control groups of citrulline treatment."}, "[3]": {"system": "normal and L-NAME-treated female rats", "experiment": "Observation of side-effects of citrulline administration in the rat experiments", "type": "in vivo", "conditions": "oral 70 or 140 mg/rat, any experiment", "procedure": "as §1, §2\nFIG. 3: The effect of a single administration of citrulline on the heart rate in normal and L-NAME-treated female rats. […] The heart rate was monitored for an additional 24 hours following citrulline treatment. […]"}, "[4]": {"conditions": "control female rats infused with vehicle, single oral 70 mg citrulline"}, "[5]": {"conditions": "female rats, 50 mg/day L-NAME by subcutaneous osmotic mini-pump, before citrulline"}}}
{"smiles": "NC(=O)NCCC[C@H](N)C(=O)O", "note": "[citrulline]", "values": [{"measurement": "effect of second dose of 140 mg on blood pressure compared with first dose of 70 mg", "setting": "[1]; L-NAME- and vehicle-treated female rats, multiple oral administration", "value": "slightly more effective"}, {"measurement": "change in systolic blood pressure", "setting": "[1]; L-NAME-treated (50 mg/day, osmotic mini-pump) female rats, single oral 70 mg citrulline 24 h after start of L-NAME infusion, N=5/group", "value": "rapid and significant (p<0.05) decrease in systolic blood pressure"}, {"measurement": "decrease in blood pressure", "setting": "[1]; L-NAME-treated female rats, multiple oral administration", "value": "30-40%"}, {"measurement": "change in blood pressure", "setting": "[1]; [4]", "value": "reduced blood pressure"}, {"measurement": "time after treatment at which systolic BP started to rise", "setting": "[1]; [4]", "value": 4, "unit": "h"}, {"measurement": "hypertension and increase in heart rate induced by NOS inhibition with L-NAME", "setting": "[1]; female rats, citrulline administered orally, overall conclusion", "value": "partially attenuated"}, {"measurement": "decrease in blood pressure", "setting": "[1]; vehicle-treated female rats, multiple oral administration", "value": "30-40%"}, {"measurement": "time to plateau of heart rate decrease after treatment", "setting": "[2]; L-NAME-treated female rats, single oral 70 mg citrulline", "value": 1, "unit": "h"}, {"measurement": "heart rate after treatment", "setting": "[2]; L-NAME-treated female rats, single oral 70 mg citrulline 24 h after start of L-NAME infusion, p<0.05", "value": "approximately 100 times/minute"}, {"measurement": "duration of the effects on heart rate", "setting": "[2]; both treatment (L-NAME) and control groups, single oral 70 mg citrulline", "value": 24, "unit": "h"}, {"measurement": "change in heart rate", "setting": "[2]; [4]", "value": "reduced heart rate"}, {"measurement": "side-effects of citrulline administration", "setting": "[3]", "value": "No side-effects"}]}
{"smiles": "COC(=O)[C@@H](N)CCCNC(=N)N[N+](=O)[O-]", "note": "[L-NAME, N^G-nitro-L-arginine methyl ester, reference compound]", "values": [{"measurement": "blood pressure effect 24 hours after start of L-NAME infusion", "setting": "[1]; [5]", "value": "substantial hypertension"}, {"measurement": "heart rate 24 hours after start of L-NAME infusion", "setting": "[2]; [5]", "value": "400-450 times/minute"}]}
